Assay results reported in patent US11396522B2, “Bis-acetal-based substrates for imaging exo-glycosidase activity” (ALECTOS THERAPEUTICS INC., priority 2017, dated 2022).

Tests used:
human O-GlcNAcase (hOGA) = target: T1, human O-GlcNAcase (hOGA) (Homo sapiens, UniProt O60502); conditions: literature value (ref 39); cited from earlier work
T1 construct: started by addition of hOGA (WT, Full-length, expressed in E. coli. as previously described); made in house; host or cells: E. coli
T1 sequence (O60502 1-916): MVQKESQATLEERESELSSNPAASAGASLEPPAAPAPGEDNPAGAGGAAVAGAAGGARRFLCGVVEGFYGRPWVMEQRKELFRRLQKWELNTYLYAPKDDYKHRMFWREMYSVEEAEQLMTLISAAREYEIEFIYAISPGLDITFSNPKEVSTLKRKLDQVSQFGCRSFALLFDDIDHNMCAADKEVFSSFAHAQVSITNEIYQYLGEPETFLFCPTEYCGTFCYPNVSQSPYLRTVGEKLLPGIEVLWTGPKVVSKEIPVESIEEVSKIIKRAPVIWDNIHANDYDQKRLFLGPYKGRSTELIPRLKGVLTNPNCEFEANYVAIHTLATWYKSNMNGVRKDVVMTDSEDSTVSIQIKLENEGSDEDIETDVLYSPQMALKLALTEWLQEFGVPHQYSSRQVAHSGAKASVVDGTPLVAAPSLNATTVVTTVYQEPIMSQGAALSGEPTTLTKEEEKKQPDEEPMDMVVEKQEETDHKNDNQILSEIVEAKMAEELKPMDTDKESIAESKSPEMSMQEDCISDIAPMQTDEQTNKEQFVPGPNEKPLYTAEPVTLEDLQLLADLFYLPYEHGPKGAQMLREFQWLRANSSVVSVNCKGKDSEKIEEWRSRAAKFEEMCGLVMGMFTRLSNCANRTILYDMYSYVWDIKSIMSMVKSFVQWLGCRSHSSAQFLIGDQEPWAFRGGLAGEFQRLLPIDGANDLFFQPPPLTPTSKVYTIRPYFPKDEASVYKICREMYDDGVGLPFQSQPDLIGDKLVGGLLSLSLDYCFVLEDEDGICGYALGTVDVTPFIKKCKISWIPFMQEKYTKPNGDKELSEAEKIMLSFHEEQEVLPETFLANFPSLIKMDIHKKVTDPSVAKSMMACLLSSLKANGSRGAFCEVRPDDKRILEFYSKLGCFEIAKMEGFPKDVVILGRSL

hOGA [1] = target: T2, hOGA (Homo sapiens, UniProt O60502); test: Turnover by hOGA within SK-N-SH lysate; type: biochemical
T2 construct: started by addition of hOGA (WT, Full-length, expressed in E. coli. as previously described); made in house; host or cells: E. coli
T2 sequence (O60502 1-916): T1 sequence (O60502 1-916)
Experimental: For cell lysates experiments, SK-N-SH cells were cultured in EMEM media supplemented with 10% FBS and Penicillin/Streptomycin antibiotics. Cells were collected, washed with PBS and lyzed using ice-cold NP-40 lysis buffer (TRIS-HCl 50 mM pH 7.4, NP-40 1%, NaCl 150 mM). After centrifugation, the supernatant was diluted in PBS. The quantity of lysate used in each measurement well (384-well plate) was equivalent to 25000 cells. […] Reactions were started by adding the substrate at a final concentration of 20 μM. This experiment was carried out in quadruplicates and the rates were determined by establishing a standard curve for EDANS fluorescence in the SK-N-SH lysate.
To evaluate the compatibility of the BABS design with complex cellular extracts, we also measured the turnover of GlcNAc-Br-BABS in SK-N-SH cell lysate in the presence of increasing concentrations of hOGA (FIG. 9). […] Buffer control consists of PBS supplemented to lysis buffer. […] Error bars represent standard deviation over quadruplicate.

hOGA [2] = target: T2, hOGA; test: Interrupted assay for determination of hemiacetal breakdown; type: biochemical; conditions: hemiacetal generated from the substrate; hOGA stopped after 1 min with Thiamet-G 100 μM
Experimental: For some experiments, fluorescence kinetic assays were performed using a Varian Cary Eclipse Spectrophotometer set for 335/493 nm excitation/emission wavelengths. Slits were set at 10 nm and the detector was set on Medium voltage. Enzymatic reactions with human OGA were carried out in PBS at 37° C. and were started by addition of hOGA (WT, Full-length, expressed in E. coli. as previously described) in a total volume of 160 μL (Starna sub-micro Fluorometer cuvette). For measurements of rates using different concentrations of substrates, a hOGA concentration of 100 nM was used. For hOGA titration, 25 μM of Glyco-BABS were added to various concentration of hOGA. For interrupted assay, reaction was started by addition of hOGA (680 nM final) in solutions of GlcNAc-BABS in PBS. […] For hemiacetal breakdown rate measurements, data after Thiamet-G addition was extracted and fitted using Prism software. EDANS standard curve was established using endpoint fluorescence measurements of serial dilutions of EDANS in the relevant buffer using the same instrument parameters. Inner-Filter effect measurements were carried out in cuvette by measuring fluorescence of several concentrations of EDANS in presence of various concentrations of GlcNAc-BABS. Kinetics with Glc-BABS and GBA enzymes (GBA1 and GBA3 purchased from R&D Systems), kinetics with GALC (R&D systems) and Gal-BABS, pH stability, quenching efficiency, some inner-filter effect experiments and lysates experiments were carried out using a Molecular Devices SpectraMax i3× plate reader. Emission/Excitation wavelengths were set at 350 and 490 nm respectively for EDANS/DABCYL Glyco-BABS and at 565 and 610 nm respectively for TAMRA/BHQ2 Glyco-BABS. Fluorescence measurements were performed using Costar 96-well black plates or Nunc 384-well black plates after sample preparation in 96-well mixing plates. For GBA1, the continuous assay was performed in citrate buffer (50 mM, pH 5.5) in the presence of 0.1% Triton, 1 mg/mL BSA and 0.14% taurodeoxycholate at 25° C. […]

[3] = pH stability of Glyco-BABS; type: physicochemical; conditions: 5 μM, up to 72 h, pH 2 to 10
From the text: One concern with the Glyco-BABS design was the known lability of acetals under acidic conditions that has been exploited in pH-sensitive prodrugs or linkers for drug delivery.^41,42 However, we recognized that carbohydrate anomeric acetals are chemically distinct from regular acetals. Due to stabilization by the endocyclic oxygen, we expected these bis-acetals would show stability across a range of physiological pH values. We therefore assessed the stability of the bis-acetal motif toward acid and base hydrolysis (FIG. 8). To do so, we tested the pH stability of 5 μM of GlcNAc-Br-BABS 1, GlcNAc-OH-BABS 2, Glc-OH-BABS 6 and Glc-H-BABS 7 at different pH over time. We prepared solutions at various pH by mixing 0.2 M KCl+0.1 M HCl with 0.2 M KCl+0.1 M KOH. Fluorescence of EDANS and Glyco-BABS solutions (5 μM, 45 μL) at different pH was measured at different time points in Nunc 384-well plates using a SpectraMax i3× plate reader. Data (triplicates) support the highly efficient quenching and the stability of these substrates over a wide range of pH.

CO[C@@H]1O[C@H](CO)[C@@H](O)[C@H](O)[C@H]1NC(C)=O [methyl β-D-N-acetylglucopyranoside]
second order rate constant with hOGA (human O-GlcNAcase (hOGA)): 440 M⁻¹ s⁻¹

CCNC1=N[C@@H]2[C@@H](O)[C@H](O)[C@@H](CO)O[C@@H]2S1 [Thiamet-G, (3aR,5R,6S,7R,7aR)-2-(ethylamino)-3a,6,7,7a-tetrahydro-5-(hydroxymethyl)-5H-Pyrano[3,2-d]thiazole-6,7-diol, reference compound]
inhibition of substrate turnover in SK-N-SH lysate (hOGA [1]; Thiamet-G 200 μM, substrate GlcNAc-Br-BABS 1): completely inhibits

CC(=O)N[C@H]1[C@H](O[C@@H](OCCOCCn2cc(CNC(=O)c3ccc(/N=N/c4ccc(N(C)C)cc4)cc3)nn2)[C@@](C)(Br)C(=O)NCCNc2cccc3c(S(=O)(=O)O)cccc23)O[C@H](CO)[C@@H](O)[C@@H]1O [Compound 1, 5-((2-((2R,3R)-3-(((2S,3R,4R,5S,6R)-3-acetamido-4,5-dihydroxy-6-(hydroxymethyl)tetrahydro-2H-pyran-2-yl)oxy)-2-bromo-3-(2-(2-(4-((4-((E)-(4-(dimethylamino)phenyl)diazenyl)benzamido)methyl)-1H-1,2,3-triazol-1-yl)ethoxy)ethoxy)-2-methylpropanamido)ethyl)amino)naphthalene-1-sulfonic Acid]
first order rate constant (k3) for hemiacetal breakdown (hOGA [2]): 0.01 s⁻¹ | turnover in SK-N-SH cell lysate with added hOGA (hOGA [1]; 20 μM substrate, 25° C., increasing hOGA): efficiently processed within lysates | pH stability (increase of fluorescence) [3]: no significant increase of fluorescence
